Among the data in publication doi:10.1101/2022.05.31.494145v5 (biorxiv, 2024) are Kd values, retold here.

The target in one test is T1, DENV 3 NS5 MTase (dengue virus type 3, UniProt A9LID6).
T1 sequence (A9LID6 2491-2755 limits assumed): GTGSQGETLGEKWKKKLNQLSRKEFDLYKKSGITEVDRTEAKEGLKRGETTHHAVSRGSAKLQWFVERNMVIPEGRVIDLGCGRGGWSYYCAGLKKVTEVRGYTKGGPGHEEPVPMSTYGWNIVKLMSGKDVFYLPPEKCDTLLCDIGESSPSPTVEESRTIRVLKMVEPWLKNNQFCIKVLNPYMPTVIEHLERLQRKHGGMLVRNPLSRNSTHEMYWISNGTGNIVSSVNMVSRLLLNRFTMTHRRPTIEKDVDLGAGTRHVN
Nature of the test: tryptophan fluorescence quenching. In kind it is binding.

Another test deals with T2, CHIKV nsP1 (Chikungunya virus strain S27-African prototype, UniProt Q8JUX6).
T2 sequence (Q8JUX6 1-535): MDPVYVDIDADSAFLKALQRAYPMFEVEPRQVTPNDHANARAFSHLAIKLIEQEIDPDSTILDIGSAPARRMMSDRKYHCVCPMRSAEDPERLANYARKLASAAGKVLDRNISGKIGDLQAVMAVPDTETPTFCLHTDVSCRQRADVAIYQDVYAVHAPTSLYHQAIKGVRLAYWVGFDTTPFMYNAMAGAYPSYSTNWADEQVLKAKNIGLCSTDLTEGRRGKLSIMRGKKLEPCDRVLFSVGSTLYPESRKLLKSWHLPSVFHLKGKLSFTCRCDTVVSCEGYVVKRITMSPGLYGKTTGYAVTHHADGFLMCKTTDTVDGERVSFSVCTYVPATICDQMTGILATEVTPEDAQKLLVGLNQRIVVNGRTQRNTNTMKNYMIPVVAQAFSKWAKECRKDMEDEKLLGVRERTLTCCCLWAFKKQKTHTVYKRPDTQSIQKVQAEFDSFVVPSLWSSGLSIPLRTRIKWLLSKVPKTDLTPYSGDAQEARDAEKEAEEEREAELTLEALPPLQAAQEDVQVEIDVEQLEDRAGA
Nature of the test: tryptophan fluorescence quenching. It counts as binding.

A word on the Kd: it is the free concentration of one partner at which half of the binding sites on the other are occupied at equilibrium, for simple one-to-one binding. Low readings indicate tighter binding, high ones weaker binding. Regarding `O=c1c(O)c(-c2ccc(O)cc2)oc2c(O)c(O)cc(O)c12` [HC, herbacetin], the Kd at DENV 3 NS5 MTase was found to be 13.3 ± 2.69 µM; on CHIKV nsP1 it was 6.52 ± 0.55 µM.

Take `O=C(/C=C/c1ccc(O)c(O)c1)OCCc1ccccc1` [CAPE, caffeic acid phenethyl ester]: the results for the Kd on DENV 3 NS5 MTase and on CHIKV nsP1 were 37.9 ± 6.32 µM and 30.6 ± 5.33 µM, respectively.

On to `Nc1nc2c(ncn2[C@@H]2O[C@H](COP(=O)(O)OP(=O)(O)OP(=O)(O)O)[C@@H](O)[C@H]2O)c(=O)[nH]1` [GTP], for which the Kd at DENV 3 NS5 MTase was 3.03 ± 1 µM; on CHIKV nsP1, 169 ± 21.3 µM.

On to `C[S+](CC[C@H](N)C(=O)O)C[C@H]1O[C@@H](n2cnc3c(N)ncnc32)[C@H](O)[C@@H]1O` (some centres unmarked) [SAM], for which the Kd at DENV 3 NS5 MTase turned out to be 6.67 ± 2.57 µM; on CHIKV nsP1, 10.9 ± 5.15 µM.
